From patent publication US11234971B2, “Methods of treating cancer comprising administration of a glucocorticoid receptor modulator and a cancer chemotherapy agent” (Corcept Therapeutics Incorporated, priority 2018, dated 2022)

Tests used:
[1] = tested on: OVCAR-5 human ovarian cancer cells; assay: OVCAR-5 cell growth (Cell Titer-Glo) with chemotherapy agents with or without dexamethasone and relacorilant; format: cell-based; settings: for IC50 (decrease in IC50 of the agent from dexamethasone-alone to relacorilant + dexamethasone) / Max effect (increase in maximal cell toxicity of the agent from dexamethasone-alone to relacorilant + dexamethasone): OVCAR-5, 100 nM dexamethasone, 300 nM relacorilant; for Max effect (increase in maximal cell toxicity of the agent from dexamethasone-alone to relacorilant + dexamethasone): high doses of chemotherapeutic
Procedure: The initial cell density was chosen to be low enough to allow for several population doublings (typically 3 to 5) during the indicated incubation period. […] After 48 hours of incubation, serially diluted test agents in growth medium were added to each well. After 72 hours of culture, the plated cells and Cell Titer-Glo® (Promega G7571) reagents were brought to room temperature to equilibrate for 30 minutes. 200 μL of Cell Titer-Glo® reagent was then added to each well, the plate was shaken for two minutes, and then left to equilibrate for ten minutes. The Cell Titer-Glo® cell viability assay uses ATP levels to determine cell numbers. After this equilibration, luminescence was read on the Biotech Synergy II microplate reader. The percent control (% C) of cell growth for each test concentration was calculated relative to untreated wells. All tests were performed in quadruplicate. Individual assay plates were evaluated for appropriate signal and well-to-well variance in the control wells for quality control.

MIA PaCa-2 xenograft = MIA PaCa-2 xenograft tumor growth in immunodeficient mice; format: in vivo; settings: single agent
From the text: The present example, Example 3, provides results of administration of the glucocorticoid receptor modulator relacorilant to cancerous cells. […] The MIA PaCa-2 xenograft model uses MIA PaCa-2 cell-line cells (pancreatic tumor cells derived from a pancreatic adenocarcinoma from a patient) engrafted into immunodeficient mice. The ovarian OVCAR-5 cell line is derived from a human epithelial carcinoma of the ovary, and was established from ascitic fluid obtained (prior to cytotoxic treatment) from a patient with progressive ovarian adenocarcinoma.
FIG. 10A. Relacorilant sensitizes the MIA PaCa-2 xenograft to paclitaxel. Tumor volume of PaCa-2 xenograft tumors implanted in immunodeficient mice is shown as a function of time (days) after implantation in the presence of vehicle (filled circles), paclitaxel (7.5 mg/kg; filled squares), relacorilant alone (upwardly pointing triangles), and relacorilant+7.5 mg/kg paclitaxel (downwardly pointing triangles). 7.5 mg/kg paclitaxel was administered three times (at the days indicated by the dashed vertical lines, indicating days 8, 12, and 16 following tumor implantation into the mice).
FIG. 10B. Relacorilant with Paclitaxel Reduces MIA PaCa-2 xenograft Tumor Volume. Initial tumor volume of PaCa-2 xenograft tumors implanted in immunodeficient mice was less than 400 cubic millimeters (mm^3). […] Tumor size progression is thus indicated by lines descending from the top (100%) value. The tumor-bearing mice were treated with vehicle, relacorilant (30 mg/kg every day), paclitaxel (three doses of 7.5 mg/kg paclitaxel, one dose administered on each of the days indicated in FIG. 10A), and the combination relacorilant (30 mg/kg every day) with paclitaxel (7.5 mg/kg doses of paclitaxel each administered on days 8, 12, and 16 post implantation). […] Xenograft tumor growth was slowed by combined relacorilant+paclitaxel as compared to either paclitaxel alone or relacorilant alone. Relacorilant thus enhanced sensitivity to paclitaxel in the pancreatic MIA PaCa-2 xenograft model.

[2] = tested on: whole blood gene expression; assay: Whole blood gene expression after 28 days of enzalutamide in cancer patients; format: in vivo; settings: human cancer patients, all p-values greater than 0.5
From the text: Enzalutamide is an androgen receptor antagonist used in the treatment of hormone-sensitive cancers such as prostate cancer. […] The small circular markers indicate the change in gene expression for individual genes. None of the gene expression levels changes following enzalutamide (as compared to baseline levels) reach significance (all p-values are greater than 0.5).

CC(=O)Nc1cccc(-n2c(=O)n(C3CC3)c(=O)c3c(Nc4ccc(I)cc4F)n(C)c(=O)c(C)c32)c1 [Trametinib]
IC50 (decrease in IC50 of the agent from dexamethasone-alone to relacorilant + dexamethasone) [1]: − | Max effect (increase in maximal cell toxicity of the agent from dexamethasone-alone to relacorilant + dexamethasone) [1]: −

O=C(c1cc(Cc2n[nH]c(=O)c3ccccc23)ccc1F)N1CCN(C(=O)C2CC2)CC1 [Olaparib]
IC50 (decrease in IC50 of the agent from dexamethasone-alone to relacorilant + dexamethasone) [1]: − | Max effect (increase in maximal cell toxicity of the agent from dexamethasone-alone to relacorilant + dexamethasone) [1]: −

C#Cc1cccc(Nc2ncnc3cc(OCCOC)c(OCCOC)cc23)c1 [Erlotinib]
IC50 (decrease in IC50 of the agent from dexamethasone-alone to relacorilant + dexamethasone) [1]: −

O=c1[nH]cc(F)c(=O)[nH]1 [5-FU]
IC50 (decrease in IC50 of the agent from dexamethasone-alone to relacorilant + dexamethasone) [1]: + (~10-59% decrease in IC50 from the dexamethasone-alone to the relacorilant + dexamethasone treatments) | Max effect (increase in maximal cell toxicity of the agent from dexamethasone-alone to relacorilant + dexamethasone) [1]: −

CC(=O)O[C@H]1C(=O)[C@@]2(C)[C@H]([C@H](OC(=O)c3ccccc3)[C@]3(O)C[C@H](OC(=O)[C@H](O)[C@@H](NC(=O)c4ccccc4)c4ccccc4)C(C)=C1C3(C)C)[C@]1(OC(C)=O)CO[C@@H]1C[C@@H]2O [paclitaxel]
tumor growth (tumor volume over time) (MIA PaCa-2 xenograft; paclitaxel 7.5 mg/kg on days 8, 12 and 16): ineffective in delaying tumor growth | time to progression (fraction of tumors whose volume remained below 400 mm^3) (MIA PaCa-2 xenograft; relacorilant 30 mg/kg every day or paclitaxel 7.5 mg/kg on days 8, 12, 16): ineffective alone in delaying tumor growth

Nc1nc2[nH]cc(CCc3ccc(C(=O)N[C@@H](CCC(=O)O)C(=O)O)cc3)c2c(=O)[nH]1 [Pemetrexed]
IC50 (decrease in IC50 of the agent from dexamethasone-alone to relacorilant + dexamethasone) [1]: ++ (>60% decrease in IC50 from the dexamethasone-alone to the relacorilant + dexamethasone treatments)

CCN(CC)CCCC(C)Nc1ccnc2cc(Cl)ccc12 (stereo not shown) [Chloroquine]
IC50 (decrease in IC50 of the agent from dexamethasone-alone to relacorilant + dexamethasone) [1]: −

COc1cccc2c1C(=O)c1c(O)c3c(c(O)c1C2=O)C[C@@](O)(C(=O)CO)C[C@@H]3O[C@H]1C[C@H](N)[C@H](O)[C@H](C)O1 [Doxorubicin]
IC50 (decrease in IC50 of the agent from dexamethasone-alone to relacorilant + dexamethasone) [1]: + (~10-59% decrease in IC50 from the dexamethasone-alone to the relacorilant + dexamethasone treatments)

CC(C)(C)c1[nH]cnc1/C=c1\[nH]c(=O)/c(=C/c2ccccc2)[nH]c1=O [Plinabulin]
IC50 (decrease in IC50 of the agent from dexamethasone-alone to relacorilant + dexamethasone) [1]: −

C=C1C[C@@H]2CC[C@@]34C[C@H]5O[C@H]6[C@@H](O3)[C@H]3O[C@H](CC[C@@H]3O[C@H]6[C@H]5O4)CC(=O)C[C@@H]3[C@@H](OC)[C@@H](C[C@H](O)CN)O[C@H]3C[C@H]3O[C@@H](CC[C@@H]1O2)C[C@@H](C)C3=C [Eribulin]
IC50 (decrease in IC50 of the agent from dexamethasone-alone to relacorilant + dexamethasone) [1]: ++ (>60% decrease in IC50 from the dexamethasone-alone to the relacorilant + dexamethasone treatments)

CS(=O)(=O)CCNCc1ccc(-c2ccc3ncnc(Nc4ccc(OCc5cccc(F)c5)c(Cl)c4)c3c2)o1 [Lapatinib]
IC50 (decrease in IC50 of the agent from dexamethasone-alone to relacorilant + dexamethasone) [1]: + (~10-59% decrease in IC50 from the dexamethasone-alone to the relacorilant + dexamethasone treatments) | Max effect (increase in maximal cell toxicity of the agent from dexamethasone-alone to relacorilant + dexamethasone) [1]: −

CNC(=O)c1ccc(N2C(=S)N(c3ccc(C#N)c(C(F)(F)F)c3)C(=O)C2(C)C)cc1F [enzalutamide]
changes in gene expression levels compared to baseline [2]: did not result in any significant changes

COc1cc([C@@H]2c3cc4c(cc3[C@@H](O[C@@H]3O[C@@H]5CO[C@@H](C)O[C@H]5[C@H](O)[C@H]3O)[C@H]3COC(=O)[C@H]23)OCO4)cc(OC)c1O [Etoposide]
IC50 (decrease in IC50 of the agent from dexamethasone-alone to relacorilant + dexamethasone) [1]: + (~10-59% decrease in IC50 from the dexamethasone-alone to the relacorilant + dexamethasone treatments) | Max effect (increase in maximal cell toxicity of the agent from dexamethasone-alone to relacorilant + dexamethasone) [1]: −

CCC1=C[C@@H]2CN(C1)Cc1c([nH]c3ccccc13)[C@@](C(=O)OC)(c1cc3c(cc1OC)N(C)[C@H]1[C@@](O)(C(=O)OC)[C@H](OC(C)=O)[C@]4(CC)C=CCN5CC[C@]31[C@@H]54)C2 [Vinorelbine]
IC50 (decrease in IC50 of the agent from dexamethasone-alone to relacorilant + dexamethasone) [1]: + (~10-59% decrease in IC50 from the dexamethasone-alone to the relacorilant + dexamethasone treatments)

N.N.[Cl][Pt][Cl] [cisplatin]
IC50 (decrease in IC50 of the agent from dexamethasone-alone to relacorilant + dexamethasone) [1]: + (~10-59% decrease in IC50 from the dexamethasone-alone to the relacorilant + dexamethasone treatments) | Max effect (increase in maximal cell toxicity of the agent from dexamethasone-alone to relacorilant + dexamethasone) [1]: + (consistent ~0-40% increase in toxicity at high doses of chemotherapeutic from the dexamethasone-alone to the relacorilant + dexamethasone treatments)

O=C(O)c1ccc(-c2c[nH]c3ncc(-c4ccccc4)cc23)cc1C1CCCC1 [GSK650394]
IC50 (decrease in IC50 of the agent from dexamethasone-alone to relacorilant + dexamethasone) [1]: − | Max effect (increase in maximal cell toxicity of the agent from dexamethasone-alone to relacorilant + dexamethasone) [1]: −

CC1(C)CCC(CN2CCN(c3ccc(C(=O)NS(=O)(=O)c4ccc(NCC5CCOCC5)c([N+](=O)[O-])c4)c(Oc4cnc5[nH]ccc5c4)c3)CC2)=C(c2ccc(Cl)cc2)C1 [Venetoclax]
IC50 (decrease in IC50 of the agent from dexamethasone-alone to relacorilant + dexamethasone) [1]: + (~10-59% decrease in IC50 from the dexamethasone-alone to the relacorilant + dexamethasone treatments) | Max effect (increase in maximal cell toxicity of the agent from dexamethasone-alone to relacorilant + dexamethasone) [1]: −

Cc1c[nH]c(-c2cnc(NCCNc3ccc(C#N)cn3)nc2-c2ccc(Cl)cc2Cl)n1 [CHIR-99021]
IC50 (decrease in IC50 of the agent from dexamethasone-alone to relacorilant + dexamethasone) [1]: − | Max effect (increase in maximal cell toxicity of the agent from dexamethasone-alone to relacorilant + dexamethasone) [1]: −

N.N.O=C([O-])C1(C(=O)[O-])CCC1.[Pt+2] [carboplatin]
cell viability ([1]; OVCAR-5 with 100 nM dexamethasone, 1 nM to 2187 nM carboplatin): dose dependent

CCc1c2c(nc3ccc(OC(=O)N4CCC(N5CCCCC5)CC4)cc13)-c1cc3c(c(=O)n1C2)COC(=O)[C@]3(O)CC [Irinotecan]
IC50 (decrease in IC50 of the agent from dexamethasone-alone to relacorilant + dexamethasone) [1]: + (~10-59% decrease in IC50 from the dexamethasone-alone to the relacorilant + dexamethasone treatments) | Max effect (increase in maximal cell toxicity of the agent from dexamethasone-alone to relacorilant + dexamethasone) [1]: −
